Reference: patent US9744177B2, “Treatment of male androgen deficiency symptoms or diseases with sex steroid precursor combined with SERM” (ENDORECHERCHE, INC., priority 2014, dated 2017)
Marks after values point to notes of the source that are not given here.

Tests used:
[1] = system: ovariectomized female rats; experiment: 3-month treatment of ovariectomized female rats: lumbar spine BMD, total fat, cholesterol, ALP (Example 3, experiment 1); assay type: in vivo, Sprague-Dawley rats; conditions: OVX rats, 3 months, serum
Description: Ten to twelve week-old female Sprague-Dawley rats (Crl:CD(SD)Br) (Charles River Laboratory, St-Constant, Canada) weighing approximately 220-270 g at start of treatment were used. The animals were acclimatized to the environmental conditions (temperature: 22±3° C.; humidity: 50±20%; 12-h light-12-h dark cycles, lights on at 07:15 h) for at least 1 week before starting the experiments. The animals were housed individually and were allowed free access to tap water and a pelleted certified rodent feed (Lab Diet 5002, Ralston Purina, St-Louis, Mo.). Experiments were conducted in an animal facility approved by the Canadian Council on Animal Care (CCAC) and the Association for Assessment and Accreditation of Laboratory Animal Care (AAALAC) in accordance with the CCAC Guide for Care and Use of Experimental Animals.
On Day 1 of the study, the animals of the appropriate groups were bilaterally ovariectomized (OVX) under isoflurane anesthesia. The DHEA was applied topically on the dorsal skin as a solution in 50% ethanol-50% propylene glycol while the other tested compounds were administered as suspension in 0.4% methylcellulose by oral gavage. Treatments were initiated on Day 2 of the study and were performed once daily during 3 months.
After 3 months (experiment 1) or 26 weeks (experiment 2) of treatment, individual rats under Isoflurane anesthesia had their whole body skeleton and lumbar spine scanned using dual energy x-ray absorptiometry (DEXA; QDR 4500A, Hologic, Waltham, Mass.) and a Regional High Resolution Scan software. The bone mineral density (BMD) of the lumbar spine (vertebrae L2 to L4) and the total body composition (fat percentage) were determined.
After 3 months (experiment 1) or 26 weeks (experiment 2) of treatment, blood samples were collected at the jugular vein from overnight fasted animals (under Isoflurane anesthesia). Samples were processed for serum preparation and frozen at −80° C. until assay. Serum cholesterol levels and alkaline phospatase activity (ALP) were determined using the Boehringer Mannheim Diagnostic Hitachi 911 Analyzer (Boehringer Mannheim Diagnostic Laboratory Systems).
Data are expressed as means±SEM. Statistical significance was determined according to the multiple-range test of Duncan-Kramer (Kramer 1956).

[2] = system: biochemical parameters of bone metabolism; experiment: Treatment of rats with DHEA and EM-800 alone or in combination: biochemical parameters of bone metabolism, serum lipids; assay type: in vivo; conditions: rat
Description: Data are expressed as the means±SEM. **: p<0.01 experimental versus respective control.
It is thus important to analyze the changes in biochemical parameters of bone metabolism induced by various compounds and treatments in order to gain a better knowledge of their action (Table 2).
It is particularly important to indicate that the combination of DHEA and acolbifene exerted unexpected beneficial effects on important biochemical parameters of bone metabolism. […] Moreover, no effect of DHEA could be detected on daily urinary calcium or phosphorus excretion (Luo, Sourla et al. 1997). EM-800 (prodrug of acolbifene free salt) decreased the urinary hydroxyproline/creatinine ratio by 48% while, similarly to DHEA, no effect of EM 800 (prodrug of acolbifene, free salt) was seen on urinary calcium or phosphorus excretion. EM-800, moreover, had no effect on serum alkaline phosphatase activity, a marker of bone formation while DHEA increased the value of the parameter by about 75% (Luo, Sourla et al. 1997).

[3] = system: human ZR-75-1 breast tumors; experiment: ZR-75-1 tumor growth in ovariectomized nude mice in absence of estrone (agonistic effects); conditions: no estrone, 200 μg daily, 161 days
[4] = 9 months, DHEA 10 mg percutaneously, EM-800 75 μg orally, once daily (FIG. 10)

## C[C@]12CC[C@@H]3c4ccc(O)cc4CC[C@H]3[C@@H]1CC[C@@H]2O [E2, 17β-estradiol]
[1]
  ALP: 59 ± 4 IU/L

## CC1=C(c2ccc(OC(=O)C(C)(C)C)cc2)[C@H](c2ccc(OCCN3CCCCC3)cc2)Oc2cc(OC(=O)C(C)(C)C)ccc21 [EM-800, (S)-(+)-4-[7-(2,2-dimethyl-1-oxopropoxy)-4-methyl-2-[4-[2-(1-piperidinyl)-ethoxy]phenyl]-2H-1-benzopyran-3-yl]-phenyl 2,2-dimethylpropanoate]
[2]; [4]
  effect on serum cholesterol: decreases
  effect on serum triglycerides: decreases
[2]; DHEA 10 mg, EM-800 75 μg
  URINE HP/Cr (hydroxyproline/creatinine ratio): 6.81 ± 0.84** μmol/mmol

## CC/C(=C(\c1ccccc1)c1ccc(/C=C/C(=O)O)cc1)c1ccccc1 [GW 5638]
[3]
  effect of compound alone on ZR-75-1 tumor size compared to OVX control: did not significantly change
[1]
  ALP: 72 ± 6 IU/L

## CC/C(=C(/c1ccc(OCCN(C)C)cc1)c1cccc(O)c1)c1ccccc1 [droloxifene, (E)-3-[1-[4-[2-(Dimethylamino)ethoxy]phenyl]-2-phenyl-1-butenyl]phenol]
[3]
  effect of compound alone on ZR-75-1 tumor size compared to OVX control: did not significantly change

## Cl.O=C(c1ccc(OCCN2CCCCC2)cc1)c1c(-c2ccc(O)cc2)sc2cc(O)ccc12 [raloxifene, [2-(4-hydroxyphenyl)-6-hydroxybenzo[b]thien-3-yl][4-[2-(1-piperidinyl)ethoxy]phenyl]-methanone hydrochloride]
[3]
  effect of compound alone on ZR-75-1 tumor size compared to OVX control: did not significantly change

## CC/C(=C(\c1ccccc1)c1ccc(OCCN(C)C)cc1)c1ccccc1 [tamoxifen, (Z)-2-[4-(1,2-diphenyl-1-butenyl)phenoxy]-N,N-dimethylethanamine]
[3]; OVX nude mice
  stimulatory effect on tumor growth (FIG. 15): approximately 100%

## CN(C)CCOc1ccc(/C(=C(/CCCl)c2ccccc2)c2ccccc2)cc1 [toremifene, (Z)-2-[4-(4-Chloro-1,2-diphenyl-1-butenyl)phenoxy]-N,N-dimethylethanamine]
[3]; OVX nude mice
  average tumor size increase over baseline: 86%
